Where two headings read alike, the source gives them in different places.
Legend:
MCF-7 ADRr line = experiment: synergistic antiproliferative effect of a combination of ADR and silybin (isobolic method); assay type: cell-based, human
Description: (§1) The determination of the binding to the estrogen receptor has been carried out on cells of ovary tumor or of other organ tumors, cultured in monolayers using as medium the Dulbecco Modified Medium added with calf serum and with 200 unities/ml of penicillin. The cells used for the tests have been trypsinated every week and placed on a plate at a […] density and incubated at 37° C. under air atmosphere containing 5% CO2 and humidity. […] After 24 hours the medium is substituted with fresh medium and the flavanolignanes dissolved in absolute ethanol are added. […] The treatment described above is repeated at 24 hour intervals during the 72 hours of the test time. The inhibition of the cell proliferation is evaluated by direct count of the cells, comparing the growth of the controls versus that of the treated samples.
(§2) The inhibition on cell proliferation is evaluated by direct count of the cells, comparing the growth of controls versus that of the treated ones.
(§3) In order to verify wether such an effect of a combination of silybin with adriamycin or cisplatin is due to a synergistic or an additive action, the data have been analyzed with the isobolic method by Berenbau (Adv. Cancer Res., 25, 269, 1981).

A2780 WT cell line = experiment: synergistic antiproliferative effect of the CIS-silybin combination (isobolic method); assay type: cell-based, human
Description: (§4) The determination of the binding to the estrogen receptor has been carried out on cells of ovary tumor or of other organ tumors, cultured in monolayers using as medium the Dulbecco Modified Medium added with calf serum and with 200 unities/ml of penicillin. The cells used for the tests have been trypsinated every week and placed on a plate at a […] density and incubated at 37° C. under air atmosphere containing 5% CO2 and humidity. […] After 24 hours the medium is substituted with fresh medium and the flavanolignanes dissolved in absolute ethanol are added. The controls are treated in the same experimental conditions only with the vehicle in the absence of the active ingredient. The treatment described above is repeated at 24 hour intervals during the 72 hours of the test time. The inhibition of the cell proliferation is evaluated by direct count of the cells, comparing the growth of the controls versus that of the treated samples.
as §2
As reported in Table III, when silybin is used in combination with CIS, a synergistic inhibition effect on the growth is observed, compared with corresponding doses of the medicaments used alone.
as §3

A2780 WT cells [1] = experiment: antiproliferative effect on A2780 WT ovary carcinoma cells (direct cell count); assay type: cell-based, human; conditions: for IC50: Homo sapiens
Description: as §1, with “samples. The inhibition on cell proliferation is evaluated by direct count of the cells, comparing the growth of controls versus that of the treated ones. […] The results are the average of two experiments carried out in triplicated.” for “samples.”

[2] = test system: tumors implanted in the nude athymic mouse; experiment: inhibition of growth of tumors implanted in nude athymic mouse; conditions: test not specified (follows in vivo mouse and man results)
Description: Moreover, the above flavanolignanes were evidenced to inhibit in vivo the cell proliferation, by measuring the size of tumors implanted in the nude athymic mouse according to the conventional conditions of literature. The treatment of the animals at doses from 1 to 100 mg/Kg evidenced a marked regression of the studied tumors until their disappearance in a high percentage of individuals.
In the in vitro tests flavanolignanes have been used as such, whereas in in vivo tests the complexes thereof with phospholipids, described in EP-A-0209038, have been used.

[3] = target: estrogen receptors of type II; conditions: read-out: dissociation affinity constant KD; cited from earlier work
human leukemia cells = conditions: cited from earlier work
other cell lines = conditions: cited from earlier work
A2780 CIS cells = experiment: antiproliferative effect on A2780 CIS (CIS resistant) ovary carcinoma cells; assay type: cell-based; conditions: Homo sapiens, A2780cis, ovary ca CIS resistant, exposure 72 h
Description: as §4, §2

OVCA-433 cells = experiment: antiproliferative effect on OVCA-433 ovary carcinoma cells; assay type: cell-based; conditions: Homo sapiens, OVCA433; OVCA-433, ovary ca, exposure 72 h
Description: as §4, §2

MCF-7 ADRr cells = experiment: antiproliferative effect on MCF-7 ADRr (ADR resistant) breast carcinoma cells; assay type: cell-based; conditions: Homo sapiens, MCF7, breast ca ADR resistant, exposure 72 h
Description: as §4, §2

[4] = test system: different stabilized cell lines, including MCF-7 ADRr, A2780 CIS; experiment: antiproliferative effect on different stabilized cell lines (overall statement); assay type: cell-based, human
Text: In order to verify the antiproliferative effect of flavanolignanes, the growth curves of different stabilized cell lines deriving from various human tumors have been examined in the presence of the compounds and their capability to interact with the Type II EBS in ovary carcinoma samples has been evaluated.
as §4, §2

A2780 WT cells [5] = experiment: cytofluorimetric analysis of cell cycle phase distribution; assay type: cell-based, human
Description: *A2780 WT cells were cultured for 2 days with or without 10 μM silybin.

[6] = test system: human tumor primary cultures; experiment: antiproliferative activity on human tumor primary cultures; assay type: cell-based
Text: A plurality of the tested flavanolignanes have a similar behaviour. In Table V, the data relating to silybin, silidianin, silymarin and dehydrosilybin are reported. The diastereomeric forms of silybin and isosilybin are as well active in these tests.

[7] = isoeffective with ADR 0.1 μg/ml + silybin 0.1 μM (80% of control)
[8] = isoeffective with ADR 0.5 μg/ml + silybin 0.1 μM (76% of control)
[9] = isoeffective with ADR 1 μg/ml + silybin 0.1 μM (69% of control)
[10] = isoeffective with ADR 2.5 μg/ml + silybin 0.1 μM (62% of control)
[11] = isoeffective with ADR 5 μg/ml + silybin 0.1 μM (47% of control)
[12] = isoeffective with ADR 10 μg/ml + silybin 0.1 μM (39% of control)
[13] = isoeffective with CIS 0.1 μg/ml + silybin 0.1 μM (67% control)
[14] = isoeffective with CIS 0.1 μg/ml + silybin 1 μM (54% control)
[15] = isoeffective with CIS 0.25 μg/ml + silybin 0.1 μM (58% control)
[16] = isoeffective with CIS 0.25 μg/ml + silybin 1 μM (35% control)
[17] = isoeffective with CIS 0.5 μg/ml + silybin 0.1 μM (37% control)
[18] = isoeffective with CIS 0.5 μg/ml + silybin 1 μM (25% control)
[19] = isoeffective with CIS 1 μg/ml + silybin 0.1 μM (18% control)
[20] = isoeffective with CIS 1 μg/ml + silybin 1 μM (12% control)
[21] = A2780 WT, ovary ca, exposure 72 h, read-out: IC50

With `COc1cccc2c1C(=O)c1c(O)c3c(c(O)c1C2=O)C[C@@](O)(C(=O)CO)C[C@@H]3O[C@H]1C[C@H](N)[C@H](O)[C@H](C)O1` [ADR, adriamycin, reference compound] the “ADR (isoeffective dose alone)” value (MCF-7 ADRr line; [7]) was 0.6 μM/ml, the “ADR (isoeffective dose alone)” value (MCF-7 ADRr line; [8]) was 0.9 μM/ml and the “ADR (isoeffective dose alone)” value (MCF-7 ADRr line; [9]) was 2.5 μM/ml. For the same compound, the “ADR (isoeffective dose alone)” value (MCF-7 ADRr line; [10]) was 5.4 μM/ml, the “ADR (isoeffective dose alone)” value (MCF-7 ADRr line; [11]) was over 10 μM/ml and the “ADR (isoeffective dose alone)” value (MCF-7 ADRr line; [12]) was over 10 μM/ml.
In the case of `N.N.[Cl][Pt][Cl]` [CIS, cisplatin, reference compound], the “CIS (isoeffective dose alone)” value (A2780 WT cell line; [13]) is reported as 0.23 µg/mL, the “CIS (isoeffective dose alone)” value (A2780 WT cell line; [14]) is reported as 0.34 µg/mL and the “CIS (isoeffective dose alone)” value (A2780 WT cell line; [15]) is reported as 0.31 µg/mL. The “CIS (isoeffective dose alone)” value (A2780 WT cell line; [16]) was 0.56 µg/mL, the “CIS (isoeffective dose alone)” value (A2780 WT cell line; [17]) was 0.54 µg/mL and the “CIS (isoeffective dose alone)” value (A2780 WT cell line; [18]) was 0.82 µg/mL. For the same compound, the “CIS (isoeffective dose alone)” value (A2780 WT cell line; [19]) was over 1 µg/mL and the “CIS (isoeffective dose alone)” value (A2780 WT cell line; [20]) was over 1 µg/mL.
In the case of `COc1cc(C2Oc3cc(-c4oc5cc(O)cc(O)c5c(=O)c4O)ccc3OC2CO)ccc1O` (stereo not shown) [dehydrosilybin], the IC50 (A2780 WT cells [1]; A2780, 72 h) is reported as 2.88 µM and the “activity” value [2] is reported as “particularly marked activity”.
For `C[C@]12CC[C@@H]3c4ccc(O)cc4CC[C@H]3[C@@H]1CC[C@@H]2O` [estradiol], the Kd [3] is listed as 10 to 20 nM.
With `COc1cc(C2Oc3ccc(C4Oc5cc(O)cc(O)c5C(=O)C4O)cc3OC2CO)ccc1O` (stereo not shown) [isosilybin] the “activity in these tests” value (A2780 WT cells [1]; diastereomeric forms, growth tests of Table V) was “active”.
In the case of `O=c1c(O)c(-c2ccc(O)c(O)c2)oc2cc(O)cc(O)c12` [quercetin], the “inhibiting activity on proliferation” value (human leukemia cells) is listed as “some inhibiting activity”, the “activity with the usual chemotherapeuticals” value (other cell lines) is listed as “synergistic activity” and the “inhibiting activity on proliferation” value (other cell lines; other cell lines) is listed as “some inhibiting activity”.
With `COc1cc(C2C3C=C([C@H]4Oc5cc(O)cc(O)c5C(=O)[C@@H]4O)C4C2COC4(O)C3=O)ccc1O` (stereo partly shown) [silidianin] the IC50 (A2780 WT cells [1]; [21]) was 12 µM and the “activity” value [2] was “particularly marked activity”.
`COc1cc(C2Oc3cc(C4Oc5cc(O)cc(O)c5C(=O)C4O)ccc3OC2CO)ccc1O` (stereo not shown) [silybin] gave an IC50 (A2780 WT cells [1]; [21]) of 12 µM, an IC50 (A2780 CIS cells) of 14 µM and an IC50 (OVCA-433 cells) of 4.8 µM. The IC50 (MCF-7 ADRr cells) was 24 µM, the “antiproliferative effect” value ([4]; 0.01 μM to 20 μM, FIG. 1 and Table I) was “dose-dependent antiproliferative effect” and the IC50 ([4]; Homo sapiens, different cell lines, silybin 0.01 μM to 20 μM, read-out: IC50 (range over cell lines)) was 4.8 to 24 µM. The “cells in phase G2/M” value (A2780 WT cells [5]; 10 μM silybin, 2 days, control 10.3) was 8.6%, the “cells in phase S” value (A2780 WT cells [5]; 10 μM silybin, 2 days, control 31) was 20.9% and the “cells in phase G0/G1” value (A2780 WT cells [5]; 10 μM silybin, 2 days, control 58.7) was 70.5%. The “effect on percentage of phase G0/G1 cells” value (A2780 WT cells [5]; A2780 WT) was “mild increase”, the “effect on percentage of phase S cells” value (A2780 WT cells [5]; A2780 WT) was “decrease in the percentage of phase S cells” and the “Silybin (isoeffective dose alone)” value (A2780 WT cell line; [13]) was 2.9 µM. The “Silybin (isoeffective dose alone)” value (A2780 WT cell line; [14]) was 8.2 µM, the “Silybin (isoeffective dose alone)” value (A2780 WT cell line; [15]) was 6.4 µM and the “Silybin (isoeffective dose alone)” value (A2780 WT cell line; [16]) was over 50 µM. The “Silybin (isoeffective dose alone)” value (A2780 WT cell line; [17]) was over 50 µM, the “Silybin (isoeffective dose alone)” value (A2780 WT cell line; [18]) was over 50 µM and the “Silybin (isoeffective dose alone)” value (A2780 WT cell line; [19]) was over 50 µM. For the same compound, the “Silybin (isoeffective dose alone)” value (A2780 WT cell line; [20]) was over 50 µM, the “Silybin (isoeffective dose alone)” value (MCF-7 ADRr line; [7]) was 0.1 µM and the “Silybin (isoeffective dose alone)” value (MCF-7 ADRr line; [8]) was 0.36 µM. The “Silybin (isoeffective dose alone)” value (MCF-7 ADRr line; [9]) was 2.2 µM, the “Silybin (isoeffective dose alone)” value (MCF-7 ADRr line; [10]) was 7 µM and the “Silybin (isoeffective dose alone)” value (MCF-7 ADRr line; [11]) was 35 µM. For the same compound, the “Silybin (isoeffective dose alone)” value (MCF-7 ADRr line; [12]) was over 50 µM and the “antiproliferative activity” value [6] was “antiproliferative activity”.
